Reference: patent publication US20240385182A1, “MASKED FLUOROGENIC LIPID COMPOUNDS, LIPID PARTICLES COMPRISING THE SAME, AND METHODS OF USE THEREOF” (Rutgers, The State University of New Jersey, priority 2023, published 2024)
Entries after “also recorded” stand apart in the source; their conditions may differ.

Key:
[1] = system: CD11b^+ macrophage population from BAL cells; assay: Murine model of ITB-induced ALI: DPPC-TC fluorescence in BAL cells by flow cytometry; assay type: in vivo, mice; conditions: 0.5 mM LNPs (5 mol % probe) on day 3, BAL 3 hour-post instillation, n = 3
From the text: FIGS. 11A-11B: flow cytometry analysis of myeloid-derived BAL cells for migratory phenotype and DPPC-TC-ONOO^− probe activity in murine model of ALI. FIG. 11A: conceptual illustration of ITB-induced ALI and LNP instillation. FIG. 11B: classification of myeloid-derived BAL cells by migratory phenotype (CD11b+) and DPPC-TC fluorescence. Quadrant plots are shown for individual mice, which were used to quantify DPPC-TC as a measure of peroxynitrite generation. After successfully imaging the iNOS dependent peroxynitrite activity in both HeLa and RAW264.7, the potential of DPPC-TC-ONOO^− for detecting peroxynitrite generated in lung tissue injury using a pre-established murine model of ALI was explored (FIGS. 11A-11B). During ALI, release of cytokines and chemokines, such as tumor necrosis factor-alpha (TNF-α) and interleukin-1 beta ([…]), recruit macrophages and other immune cells to the site of injury. During the initial phase of injury (d0-d3), pro-inflammatory macrophages are dominant, which is associated with higher levels of iNOS expression. Herein, a previously reported ITB method was employed, which causes a severe inflammatory response characterized by infiltration of immune cells, which is dependent upon iNOS activation. For a generalizable and biocompatible instillation protocol, LNP concentrations ranging from 0.5 to 2.0 mM were evaluated. LNPs carrying DPPC-TC (5 mol % of the lipid content) were employed in C57BL6/J mice and the viability of the cells from BAL was analyzed via flow cytometry. Results indicated 94% viability at 0.5 mM LNP concentration, which was employed for the subsequent experiments. On d0, mice (C57BL6/J or iNOS^−/−) were anesthetized and received an intratracheal instillation of either PBS (control) or bleomycin (FIGS. 11A-11B). To detect the peroxynitrite generation during the early inflammatory response, mice were again anesthetized and instilled with 0.5 mM LNPs containing DPPC-TC-ONOO^− (5 mol % of the lipid content) on day 3. […] The migratory population was further analyzed for DPPC-TC signal quantification (Table 4).

HeLa and RAW 264.7 cells = assay: MTT cell viability assay; assay type: cell-based; conditions: 8-250 μM, 24-hour period
Experimental: With a feasible liposome preparation and treatment protocol established for live cell imaging, attention was turned to assessing the cytocompatibility of the LNPs, with or without DPPC-TC-ONOO^−, DPPC-TC, and the oxa-spiro[4,5] decenone 6a. A standard 3-(4,5-dimethylthiazol-2-yl)-2,5-diphenyl tetrazolium bromide (MTT) cell viability assay in HeLa and RAW 264.7 cells treated with these molecules (8-250 μM) over a 24-hour period. The dose-response curves provided high IC50 values for each compound: DPPC-TC-ONOO− (≥100 μM), DPPC-TC (≥50 μM), and 6 (≥70 μM).

[2] = Confocal imaging of giant vesicles containing DPPC-TC-ONOO^− treated with redox species
Experimental: FIG. 8A: conceptual illustration of function of the model protocell. FIG. 8B: confocal images acquired for untreated (top panel) and peroxynitrite-treated (middle and bottom panels) GVs. FIG. 8C: confocal images acquired for GVs treated with other RNS and ROS. FIGS. 8B-8C: vesicles were prepared from POPC (98.5%, molar ratio) and DPPC-TC-ONOO^− (1%) via electroformation. Liss-Rhod PE dye (red, 560 nm excitation) was used at 0.5 mol % to label vesicle membranes. […] Scale bar=5 μm. In most biomimetic systems that rely on compartmentalization, physical membrane boundaries are comprised of self-assembled lipids. Biomimetic membranes can be represented by GVs, which have dimensional properties (1-30 μm in diameter) relevant to those of mammalian cells (10-100 μm), display physical characteristics feasible for confocal fluorescence imaging, and are utilized for bottom-up construction of biomimetic systems. […] Given the longer timescale required for data acquisition in microscopy compared to fluorescence measurements by plate reader, the pH of imaging buffers was set to 8.5, which extended the lifetime of peroxynitrite. […] Vesicle size distribution was analyzed by dynamic light scattering (DLS), confirming the presence of GVs. […] GVs were then imaged using fluorescence confocal microscopy. […]

Question: Which “DPPC-TC p:n ratio” value ([1]; WT-ITB) does the source give for `CCCCCCCCCCCCCCCC(=O)OCC(COP(=O)([O-])OCC[N+](C)(C)Cc1cn(-c2cc3ccc(OC(=O)Oc4ccc(CCC(=O)C(F)(F)F)cc4)cc3oc2=O)nn1)OC(=O)CCCCCCCCCCCCCCC` (racemic) [DPPC-TC-ONOO^−] here?
Answer: 0.72 ± 0.008

Question: And the “DPPC-TC p:n ratio” value ([1]; WT-PBS)?
Answer: 0.55 ± 0.021

Question: What about the “DPPC-TC p:n ratio” value ([1]; iNOS^−/−-ITB) of the same molecule?
Answer: 0.56 ± 0.018

Question: And the IC50 (HeLa and RAW 264.7 cells)?
Answer: ≥ 100 µM

Question: And the “GV membrane fluorescence at 405 nm excitation” value ([2]; GVs of POPC and DPPC-TC-ONOO^− (~99:1), ONOO^− 100 μM)?
Answer: substantial increase in membrane fluorescence; also recorded: strong fluorescence

Question: What about the “GV fluorescence at 405 nm excitation” value ([2]; GVs of POPC and DPPC-TC-ONOO^−, other redox species (NO·, H2O2, HO·, ^1O2, O2·^−) 100 μM, 5 min) of the same molecule?
Answer: essentially no fluorescence generation; also recorded: minimal fluorescence
